What was measured:
Assay type in all cases: in vivo
Conditions in all cases: 14 DAA
Winter Wheat “Hereward” = test: Test 1B glasshouse assay, post-emergence herbicidal activity against cereal crops
Protocol: (§1) Biological Example 1B tests the herbicidal activity of“technical” compounds (i.e. compounds not previously formulated before the test), as the herbicides under test.
(§2) An “instant formulation”, known as the “IF50”, containing 50 g/liter (i.e. 5% w/v) of the “technical” (i.e. unformulated) active ingredient (i.e. the herbicide under test), is prepared by dissolving the active ingredient in a mixture of organic solvents and emulsifier, details of which are provided in the Table below.
(§3) This IF50 is mixed with a small, variable amount of acetone to aid dissolution, before addition of a 0.5% v/v aqueous solution of the adjuvant Adigor™ (an adjuvant containing rapeseed oil methyl ester, ethoxylated alcohols, and a mixture of heavy aromatic hydrocarbons, e.g. available from Syngenta), as the aqueous diluent, to form an aqueous spray solution which contains a predetermined concentration of the active ingredient (which varies depending on the application rate of the active ingredient to the plants) and 0.5% v/v of the adjuvant Adigor™. This aqueous spray solution is suitable for spraying onto plants.
(§4) Seeds of a variety of test species are sown in standard soil in pots. After cultivation for 14 days under controlled conditions in a glasshouse (at 22/16° C., day/night; 16 hours light; 65% humidity), the plants are sprayed post-emergence with the above-mentioned aqueous spray solution containing inter alia the “technical” active ingredient (i.e. the herbicide under test) and the adjuvant Adigor™.
(§5) The test plants are then grown on under controlled conditions in the glasshouse (at 22/16° C., day/night; 16 hours light; 65% humidity) and are watered twice daily. 14 days after application of the test herbicide, the test is evaluated visually for percentage phytotoxicity to the plant (where 100%=total damage to plant; 0%=no damage to plant).
(§6) More specifically, post-emergence herbicidal activity (phytotoxicity) data, on certain tested grassy monocotyledonous weeds (and/or plants of the type Gramineae) and cereal crops in the glasshouse, are measured 14 days after application of the herbicide (14 DAA), typically for inter alia one or more of the following application rates: • (a) a post-emergence application rate of 60 g/ha of the test herbicide with or without 50 g/ha of cloquintocet-mexyl safener, and • (b) a post-emergence application rate of 90 g/ha of the test herbicide with 50 g/ha of cloquintocet-mexyl safener, and • (c) a post-emergence application rate of 120 g/ha of the test herbicide with 50 g/ha of cloquintocet-mexyl safener.
(§7) The cloquintocet-mexyl, when used, is present in the formulation containing the herbicide under test dissolved in acetone plus IF50.
(§8) The range of herbicide application rates tested sometimes includes application rates other than those shown above, and the rates can vary depending on the herbicide under test.
(§9) Herbicidal activity (phytotoxicity) is evaluated visually, and an assessed percentage phytotoxicity score is given for each herbicidal application on each plant species (with 100%=total damage to plant; 0%=no damage to plant; the assessment is recorded in increments of 1%). Two replicates are made for each experiment, and the mean herbicidal activity (phytotoxicity) data is reported.

Spring Wheat “Teal” = test: as above
Protocol: as §1, §2, §3, §4, §5, §6, §7, §8, §9

Winter Barley “Suzuka” = test: as above
Protocol: as §1, §2, §3, §4, §5, §6, §7, §8, §9

[1] = system: Spring Barley “Harrington”; test: as above
Protocol: as §1, §2, §3, §4, §5, §6, §7, §8, §9

Avena fatua (AVEFA) = test: Test 1B glasshouse assay, post-emergence herbicidal activity against grassy weeds
Protocol: as §1, §2, §3, §4, §5, §6, §7, §8, §9
(§10) For compounds A34, A98, A99, A87, A100, A101, A89, A120, A120A, A120B, A23, A127, A128, A89, A112 and A113 the tested weeds were as follows: Avena fatua (AVEFA), Lolium multiflorum (LOLMU), Setaria viridis (SETVI), Poa annua (POAAN), Alopecurus myosuroides (ALOMY). All five of these are grassy monocotyledonous weeds. Except for SETVI, these are all “cool-season” grassy monocotyledonous weeds.

Setaria viridis (SETVI) = test: as above
Protocol: as §1, §2, §3, §4, §5, §6, §7, §8, §9, §10

[2] = system: Lolium multiflorum (LOLMU); test: as above
Protocol: as §1, §2, §3, §4, §5, §6, §7, §8, §9, §10

Poa annua (POAAN) = test: as above
Protocol: as §1, §2, §3, §4, §5, §6, §7, §8, §9, §10

[3] = system: Alopecurus myosuroides (ALOMY); test: as above
Protocol: as §1, §2, §3, §4, §5, §6, §7, §8, §9, §10

[4] = 60 g/ha herbicide, 0 g/ha cloquintocet-mexyl, test result no. 1 (T1)
[5] = 60 g/ha herbicide, 50 g/ha cloquintocet-mexyl, test result no. 1 (T1)
[6] = 60 g/ha herbicide, 50 g/ha cloquintocet-mexyl, test result no. 2 (T2)
[7] = 90 g/ha herbicide, 50 g/ha cloquintocet-mexyl, test result no. 2 (T2)
[8] = 120 g/ha herbicide, 50 g/ha cloquintocet-mexyl, test result no. 2 (T2)

Question: With Cc1cc(-n2cc(Cl)cn2)cc(C)c1C1C(=O)C[C@H](CCNC(=O)c2ccccn2)C1=O (stereo partly drawn) [Compound A99] as the compound, how does the “Post-emergence herbicidal activity against cereal crops, percentage phytotoxicity, Winter Wheat “Hereward”” value (Winter Wheat “Hereward”; [4]) read?
Answer: 0 (T1) %

Question: What about the “Post-emergence herbicidal activity against cereal crops, percentage phytotoxicity, Winter Wheat “Hereward”” value (Winter Wheat “Hereward”; [5]) of the same compound?
Answer: 1 (T1); %

Question: What about the “Post-emergence herbicidal activity against cereal crops, percentage phytotoxicity, Winter Wheat “Hereward”” value (Winter Wheat “Hereward”; [6]) of the same compound?
Answer: 0 (T2) %

Question: What about the “Post-emergence herbicidal activity against cereal crops, percentage phytotoxicity, Winter Wheat “Hereward”” value (Winter Wheat “Hereward”; [7]) of the same compound?
Answer: 0 (T2) %

Question: What about the “Post-emergence herbicidal activity against cereal crops, percentage phytotoxicity, Winter Wheat “Hereward”” value (Winter Wheat “Hereward”; [8]) of the same compound?
Answer: 8 (T2) %

Question: What about the “Post-emergence herbicidal activity against cereal crops, percentage phytotoxicity, Spring Wheat “Teal”” value (Spring Wheat “Teal”; [4]) of the same compound?
Answer: 2 (T1) %

Question: And the “Post-emergence herbicidal activity against cereal crops, percentage phytotoxicity, Spring Wheat “Teal”” value (Spring Wheat “Teal”; [5])?
Answer: 1 (T1); %

Question: And the “Post-emergence herbicidal activity against cereal crops, percentage phytotoxicity, Spring Wheat “Teal”” value (Spring Wheat “Teal”; [6])?
Answer: 5 (T2) %

Question: And the “Post-emergence herbicidal activity against cereal crops, percentage phytotoxicity, Spring Wheat “Teal”” value (Spring Wheat “Teal”; [7])?
Answer: 5 (T2) %

Question: And the “Post-emergence herbicidal activity against cereal crops, percentage phytotoxicity, Spring Wheat “Teal”” value (Spring Wheat “Teal”; [8])?
Answer: 8 (T2) %

Question: What about the “Post-emergence herbicidal activity against cereal crops, percentage phytotoxicity, Winter Barley “Suzuka”” value (Winter Barley “Suzuka”; [4]) of the same compound?
Answer: 60 (T1) %

Question: What about the “Post-emergence herbicidal activity against cereal crops, percentage phytotoxicity, Winter Barley “Suzuka”” value (Winter Barley “Suzuka”; [5]) of the same compound?
Answer: 15 (T1); %

Question: What about the “Post-emergence herbicidal activity against cereal crops, percentage phytotoxicity, Winter Barley “Suzuka”” value (Winter Barley “Suzuka”; [6]) of the same compound?
Answer: 14 (T2) %

Question: What about the “Post-emergence herbicidal activity against cereal crops, percentage phytotoxicity, Winter Barley “Suzuka”” value (Winter Barley “Suzuka”; [7]) of the same compound?
Answer: 35 (T2) %

Question: What about the “Post-emergence herbicidal activity against cereal crops, percentage phytotoxicity, Winter Barley “Suzuka”” value (Winter Barley “Suzuka”; [8]) of the same compound?
Answer: 38 (T2) %

Question: And the “Post-emergence herbicidal activity against cereal crops, percentage phytotoxicity, Spring Barley “Harrington”” value [1, 4]?
Answer: 15 (T1) %

Question: What about the “Post-emergence herbicidal activity against cereal crops, percentage phytotoxicity, Spring Barley “Harrington”” value [1, 5] of the same compound?
Answer: 3 (T1); %

Question: And the “Post-emergence herbicidal activity against cereal crops, percentage phytotoxicity, Spring Barley “Harrington”” value [1, 6]?
Answer: 3 (T2) %

Question: And the “Post-emergence herbicidal activity against cereal crops, percentage phytotoxicity, Spring Barley “Harrington”” value [1, 7]?
Answer: 5 (T2) %

Question: What about the “Post-emergence herbicidal activity against cereal crops, percentage phytotoxicity, Spring Barley “Harrington”” value [1, 8] of the same compound?
Answer: 8 (T2) %

Question: What about the “Post-emergence herbicidal activity, percentage phytotoxicity, AVEFA” value (Avena fatua (AVEFA); [4]) of the same compound?
Answer: 50 (T1) %

Question: And the “Post-emergence herbicidal activity, percentage phytotoxicity, AVEFA” value (Avena fatua (AVEFA); [5])?
Answer: 40 (T1); %

Question: What about the “Post-emergence herbicidal activity, percentage phytotoxicity, AVEFA” value (Avena fatua (AVEFA); [6]) of the same compound?
Answer: 48 (T2) %

Question: And the “Post-emergence herbicidal activity, percentage phytotoxicity, AVEFA” value (Avena fatua (AVEFA); [7])?
Answer: 60 (T2) %

Question: And the “Post-emergence herbicidal activity, percentage phytotoxicity, AVEFA” value (Avena fatua (AVEFA); [8])?
Answer: 78 (T2) %

Question: And the “Post-emergence herbicidal activity, percentage phytotoxicity, SETVI” value (Setaria viridis (SETVI); [4])?
Answer: 10 (T1) %

Question: And the “Post-emergence herbicidal activity, percentage phytotoxicity, SETVI” value (Setaria viridis (SETVI); [5])?
Answer: 8 (T1); %

Question: And the “Post-emergence herbicidal activity, percentage phytotoxicity, SETVI” value (Setaria viridis (SETVI); [6])?
Answer: 33 (T2) %

Question: What about the “Post-emergence herbicidal activity, percentage phytotoxicity, SETVI” value (Setaria viridis (SETVI); [7]) of the same compound?
Answer: 68 (T2) %

Question: And the “Post-emergence herbicidal activity, percentage phytotoxicity, SETVI” value (Setaria viridis (SETVI); [8])?
Answer: 75 (T2) %

Question: What about the “Post-emergence herbicidal activity, percentage phytotoxicity, LOLMU” value [2, 4] of the same compound?
Answer: 35 (T1) %

Question: And the “Post-emergence herbicidal activity, percentage phytotoxicity, LOLMU” value [2, 5]?
Answer: 35 (T1); %

Question: What about the “Post-emergence herbicidal activity, percentage phytotoxicity, LOLMU” value [2, 6] of the same compound?
Answer: 55 (T2) %

Question: What about the “Post-emergence herbicidal activity, percentage phytotoxicity, LOLMU” value [2, 7] of the same compound?
Answer: 65 (T2) %

Question: What about the “Post-emergence herbicidal activity, percentage phytotoxicity, LOLMU” value [2, 8] of the same compound?
Answer: 78 (T2) %

Question: What about the “Post-emergence herbicidal activity, percentage phytotoxicity, POAAN” value (Poa annua (POAAN); [4]) of the same compound?
Answer: 70 (T1) %

Question: And the “Post-emergence herbicidal activity, percentage phytotoxicity, POAAN” value (Poa annua (POAAN); [5])?
Answer: 73 (T1); %

Question: What about the “Post-emergence herbicidal activity, percentage phytotoxicity, POAAN” value (Poa annua (POAAN); [6]) of the same compound?
Answer: 70 (T2) %

Question: What about the “Post-emergence herbicidal activity, percentage phytotoxicity, POAAN” value (Poa annua (POAAN); [7]) of the same compound?
Answer: 73 (T2) %

Question: And the “Post-emergence herbicidal activity, percentage phytotoxicity, POAAN” value (Poa annua (POAAN); [8])?
Answer: 75 (T2) %

Question: What about the “Post-emergence herbicidal activity, percentage phytotoxicity, ALOMY” value [3, 4] of the same compound?
Answer: 50 (T1) %

Question: What about the “Post-emergence herbicidal activity, percentage phytotoxicity, ALOMY” value [3, 5] of the same compound?
Answer: 35 (T1); %

Question: What about the “Post-emergence herbicidal activity, percentage phytotoxicity, ALOMY” value [3, 6] of the same compound?
Answer: 38 (T2) %

Question: And the “Post-emergence herbicidal activity, percentage phytotoxicity, ALOMY” value [3, 7]?
Answer: 58 (T2) %

Question: What about the “Post-emergence herbicidal activity, percentage phytotoxicity, ALOMY” value [3, 8] of the same compound?
Answer: 73 (T2) %

From patent US9808003B2, “Herbicidally active 2-(substituted-phenyl)-cyclopentane-1,3-dione compounds and derivatives thereof” (Syngenta Limited, priority 2013, dated 2017)
